Read-outs that look alike come from different tables or passages of the source. Numbered stars: 1 amine (or outer) side, 2 acyl side, 3 side chain; on linkers, the order of the positions; unused ones are H or OH. Square brackets hold non-standard residues; d marks the D form. Side chains are listed from the residue outwards. Peptide text beside a SMILES is read from it. * marks the point of attachment. ξ: configuration not given here. C20 diacid = O=C(O)CCCCCCCCCCCCCCCCCCC(=O)*; αMePhe(2-F) = C[C@](N)(Cc1ccccc1F)C(=O)O; γGlu = O=C(O)[C@H](CCC(=O)[*:2])N[*:1]; αMeY = C[C@](N)(Cc1ccc(O)cc1)C(=O)O; 4Pal = N[C@@H](Cc1ccncc1)C(=O)O; αMeL = CC(C)C[C@](C)(N)C(=O)O; Orn = NCCC[C@H](N)C(=O)O; ξIva = CCC(C)(N)C(=O)O; AEEA = NCCOCCOCC(=O)O; Aib = CC(C)(N)C(=O)O

Data set [1] is described as follows: Pharmacokinetics in male diet-induced obese (DIO) mice. It is filed as in vivo. The conditions noted are these: mouse, single 200 nmol/kg SQ dose, plasma; for half-life: read-out: t½ (converted). How it is done:
Methods: Male DIO mice are administered a single SQ dose of 200 nmol/kg (0.98 mg/kg) of Example compounds in 40 mM Tris-HCL pH8 buffer with 0.02% PS80 at a volume of 10 mL/kg. […] Plasma concentration of Example compounds are determined by a qualified Liquid Chromatography Mass Spectrometry (LC/MS) method at Q Squared Solutions BioSciences LLC (Ithaca, NY). The Example compounds and an internal standard are extracted from 100% mouse plasma using protein precipitation followed by solid phase extraction. The intact mass of the Example compounds, which includes peptide plus acyl chain, are detected by a Q-Exactive™ Orbitrap® mass spectrometer.

The target of data set [2] is T1, hGIPR (Homo sapiens, UniProt P48546).
T1 construct: expressed in transfected cells; host or cells: HEK-293 clonal cell line
T1 sequence (P48546 22-466): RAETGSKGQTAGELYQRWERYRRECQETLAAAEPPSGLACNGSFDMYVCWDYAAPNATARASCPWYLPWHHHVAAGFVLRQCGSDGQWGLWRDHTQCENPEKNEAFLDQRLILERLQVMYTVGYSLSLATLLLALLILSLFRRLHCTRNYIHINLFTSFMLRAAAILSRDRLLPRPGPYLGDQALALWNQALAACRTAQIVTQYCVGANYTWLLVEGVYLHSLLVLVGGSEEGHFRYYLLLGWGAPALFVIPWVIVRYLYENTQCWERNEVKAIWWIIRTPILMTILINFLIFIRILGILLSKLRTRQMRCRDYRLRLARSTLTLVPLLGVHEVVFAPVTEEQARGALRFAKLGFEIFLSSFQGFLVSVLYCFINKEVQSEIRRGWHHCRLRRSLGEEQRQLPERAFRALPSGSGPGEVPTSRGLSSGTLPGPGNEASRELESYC
The data set can be described thus: Functional cAMP assay in HEK-293 cells expressing hGIPR. It is filed as cell-based. To be noted: percent of maximal response to GIP(1-42)NH2. How it is done: (§1) Experiments also are performed under identical assay conditions with the addition of 1.0% fatty acid free, globulin free human serum albumin (Sigma Cat #A3782).
(§2) After a 30-min incubation at 37° C., the resulting increase in intracellular cAMP is quantitatively determined using a CisBio cAMP Dynamic 2 HTRF Assay Kit (62AM4PEJ). Briefly, cAMP levels within the cell are detected by adding the cAMP-d2 conjugate in cell lysis buffer (10 μL) followed by the antibody anti-cAMP-Eu^3+-Cryptate, also in cell lysis buffer (10 μL). The resulting competitive assay is incubated for at least 60 min at room temperature, and then is detected using a PerkinElmer Envision® instrument with excitation at 320 nm and emission at 665 nm and 620 nm. Envision units (emission at 665 nm/620 nm*10,000) are inversely proportional to the amount of cAMP present and are converted to nM cAMP per well using a cAMP standard curve. […] A relative EC50 value and percent top (Emax) are derived by non-linear regression analysis using the percent maximal response vs. the concentration of peptide added, fitted to a four-parameter logistic equation.
(cAMP levels reflect the balance of adenylyl cyclase and phosphodiesterase activity.)

The target of data set [3] is T2, hGLP-1R (Homo sapiens, UniProt P43220).
T2 construct: expressed in transfected cells; host or cells: HEK-293 clonal cell line
T2 sequence (P43220 24-463): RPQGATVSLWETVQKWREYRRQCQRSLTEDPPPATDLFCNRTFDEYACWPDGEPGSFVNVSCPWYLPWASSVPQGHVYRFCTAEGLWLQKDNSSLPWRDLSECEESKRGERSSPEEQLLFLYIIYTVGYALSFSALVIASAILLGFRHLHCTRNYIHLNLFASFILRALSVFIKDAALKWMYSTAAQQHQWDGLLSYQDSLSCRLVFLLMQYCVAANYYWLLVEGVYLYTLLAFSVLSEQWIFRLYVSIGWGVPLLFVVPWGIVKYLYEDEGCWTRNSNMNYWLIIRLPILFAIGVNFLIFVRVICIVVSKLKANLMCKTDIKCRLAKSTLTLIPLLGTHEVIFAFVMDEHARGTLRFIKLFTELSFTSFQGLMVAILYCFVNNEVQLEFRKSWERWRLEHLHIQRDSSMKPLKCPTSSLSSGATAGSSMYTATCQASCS
Nature of the data set: Functional cAMP assay in HEK-293 cells expressing hGLP-1R. It is filed as cell-based. To be noted: percent of maximal response to GLP-1(7-36)NH2. How it is done:
as §1, §2

Data set [4] deals with T3, hGCGR (Homo sapiens, UniProt P47871, DEL55-55).
T3 construct: expressed in transfected cells; host or cells: HEK-293 clonal cell line
T3 sequence (P47871 with tags, fused parts or gaps DEL55-55): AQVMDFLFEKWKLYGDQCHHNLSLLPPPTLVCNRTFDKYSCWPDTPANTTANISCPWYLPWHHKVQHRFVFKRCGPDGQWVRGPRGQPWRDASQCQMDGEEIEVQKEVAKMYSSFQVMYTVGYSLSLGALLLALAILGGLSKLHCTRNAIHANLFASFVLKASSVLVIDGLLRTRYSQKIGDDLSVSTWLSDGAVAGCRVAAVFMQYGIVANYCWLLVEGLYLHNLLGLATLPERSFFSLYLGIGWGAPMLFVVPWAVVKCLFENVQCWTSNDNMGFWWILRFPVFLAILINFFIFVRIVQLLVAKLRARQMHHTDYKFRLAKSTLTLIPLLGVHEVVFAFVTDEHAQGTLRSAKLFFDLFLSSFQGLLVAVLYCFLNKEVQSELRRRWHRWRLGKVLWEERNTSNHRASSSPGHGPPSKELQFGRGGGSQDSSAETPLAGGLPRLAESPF
The data set can be described thus: Functional cAMP assay in HEK-293 cells expressing hGCGR. The conditions noted are these: percent of maximal response to GCG. The class given is cell-based. How it is done:
as §1, §2

[5] abbreviates: HEK293, 0.1% bovine casein and 1.0% human serum albumin, read-out: hGIPR Emax.
Where [6] appears, read: HEK293, 0.1% bovine casein, read-out: hGIPR Emax.

As to `CC[C@H](C)[C@H](NC(=O)[C@H](Cc1ccccc1)NC(=O)[C@H](C)NC(=O)[C@H](Cc1ccncc1)NC(=O)[C@H](CCC(N)=O)NC(=O)[C@H](C)NC(=O)[C@H](CCCCNC(=O)COCCOCCNC(=O)CC[C@H](NC(=O)CCCCCCCCCCCCCCCCCCC(=O)O)C(=O)O)NC(=O)[C@H](CCCN)NC(=O)[C@H](CC(=O)O)NC(=O)[C@H](CC(C)C)NC(=O)[C@H](CC(C)C)NC(=O)[C@@H](NC(=O)[C@H](CO)NC(=O)[C@H](Cc1ccc(O)cc1)NC(=O)[C@H](CC(=O)O)NC(=O)[C@H](CO)NC(=O)[C@@H](NC(=O)[C@](C)(Cc1ccccc1F)NC(=O)[C@@H](NC(=O)CNC(=O)[C@H](CCC(N)=O)NC(=O)C(C)(C)NC(=O)[C@@H](N)Cc1ccc(O)cc1)[C@@H](C)O)[C@@H](C)O)[C@@H](C)CC)C(=O)N[C@@H](CCC(=O)O)C(=O)N[C@@H](Cc1ccc(O)cc1)C(=O)N[C@@H](CC(C)C)C(=O)N[C@@H](CC(C)C)C(=O)N[C@@H](CCC(=O)O)C(=O)NCC(=O)NCC(=O)N1CCC[C@H]1C(=O)N[C@@H](CO)C(=O)N[C@@H](CO)C(=O)NCC(=O)N[C@@H](CCC(=O)O)C(=O)N1CCC[C@H]1C(=O)N1CCC[C@H]1C(=O)N1CCC[C@H]1C(=O)N[C@@H](CCC(=O)O)C(N)=O` [Example 1] (H-Y[Aib]QGT[αMePhe(2-F)]TSDYSILLD[Orn]K([AEEA-γGlu-C20 diacid])AQ[4Pal]AFIEYLLEGGPSSGEPPPE-NH2), in data set [1] (in vivo), the AUC(0-inf) was 55.6 µM·h, the CL/F is 3.6 mL/h/kg, the peak level (Cmax) was 817 nM and the Tmax came to 12 h. For the same compound, the half-life in data set [1] (in vivo) is 38 h. Further, in data set [2] (HEK293, read-out: hGIPR Emax, 0.1% bovine casein and 1.0% human serum albumin), the Emax came to 100 ± 3%. For the same compound, the Emax in data set [2] (HEK293, read-out: hGIPR Emax, 0.1% bovine casein) was determined as 102 ± 2%. The Emax in data set [3] (HEK293, read-out: hGLP-1R Emax, 0.1% bovine casein and 1.0% human serum albumin) is 102 ± 4%. Besides, the Emax in data set [3] (HEK293, read-out: hGLP-1R Emax, 0.1% bovine casein) was determined as 106 ± 4%.

For `CC[C@H](C)[C@H](NC(=O)[C@H](Cc1ccccc1)NC(=O)[C@H](C)NC(=O)C(C)(CC)NC(=O)[C@H](CCC(N)=O)NC(=O)[C@H](C)NC(=O)[C@H](CCCCNC(=O)COCCOCCNC(=O)CC[C@H](NC(=O)CCCCCCCCCCCCCCCCCCC(=O)O)C(=O)O)NC(=O)[C@H](CCCN)NC(=O)[C@H](CC(=O)O)NC(=O)[C@H](CC(C)C)NC(=O)[C@](C)(CC(C)C)NC(=O)[C@@H](NC(=O)[C@H](CO)NC(=O)[C@H](Cc1ccc(O)cc1)NC(=O)[C@H](CC(=O)O)NC(=O)[C@H](CO)NC(=O)[C@@H](NC(=O)[C@](C)(Cc1ccccc1F)NC(=O)[C@@H](NC(=O)CNC(=O)[C@H](CCC(N)=O)NC(=O)C(C)(C)NC(=O)[C@@H](N)Cc1ccc(O)cc1)[C@@H](C)O)[C@@H](C)O)[C@@H](C)CC)C(=O)N[C@@H](CCC(=O)O)C(=O)N[C@@](C)(Cc1ccc(O)cc1)C(=O)N[C@@H](CC(C)C)C(=O)N[C@@H](CC(C)C)C(=O)N[C@@H](CCC(=O)O)C(=O)NCC(=O)NCC(=O)N1CCC[C@H]1C(=O)N[C@@H](CO)C(=O)N[C@@H](CO)C(=O)NCC(=O)N[C@@H](CCC(=O)O)C(=O)N1CCC[C@H]1C(=O)N1CCC[C@H]1C(=O)N1CCC[C@H]1C(=O)N[C@@H](CO)C(N)=O` (stereo partly drawn) [Example 2] (H-Y[Aib]QGT[αMePhe(2-F)]TSDYSI[αMeL]LD[Orn]K([AEEA-γGlu-C20 diacid])AQ[ξIva]AFIE[αMeY]LLEGGPSSGEPPPS-NH2; N-terminus assumed), in data set [1] (subcutaneous), the AUC(0-inf) was 42.5 µM·h, the CL/F is 4.7 mL/h/kg, the concentration peaked (Cmax) at 1240 nM and the Tmax turned out to be 12 h. Moreover, the half-life in data set [1] (subcutaneous) is 18 h. Besides, the Emax in data set [2] (setting [5]) worked out at 99 ± 2%. For the same compound, in data set [2] (setting [6]), the Emax came to 101 ± 2%.

`CC[C@H](C)[C@H](NC(=O)[C@H](Cc1ccccc1)NC(=O)C(C)(C)NC(=O)[C@](C)(CC(C)C)NC(=O)[C@H](CCC(N)=O)NC(=O)[C@H](C)NC(=O)[C@H](CCCCNC(=O)COCCOCCNC(=O)CC[C@H](NC(=O)CCCCCCCCCCCCCCCCCCC(=O)O)C(=O)O)NC(=O)[C@H](CCCN)NC(=O)[C@H](CC(=O)O)NC(=O)[C@H](CC(C)C)NC(=O)[C@](C)(CC(C)C)NC(=O)[C@@H](NC(=O)[C@H](CO)NC(=O)[C@H](Cc1ccncc1)NC(=O)[C@H](CC(=O)O)NC(=O)[C@H](CO)NC(=O)[C@@H](NC(=O)[C@](C)(Cc1ccccc1F)NC(=O)[C@@H](NC(=O)CNC(=O)[C@H](CCC(N)=O)NC(=O)C(C)(C)NC(=O)[C@@H](N)Cc1ccc(O)cc1)[C@@H](C)O)[C@@H](C)O)[C@@H](C)CC)C(=O)N[C@H](CCC(=O)O)C(=O)N[C@@](C)(Cc1ccc(O)cc1)C(=O)N[C@@H](CC(C)C)C(=O)N[C@@H](CC(C)C)C(=O)N[C@@H](CCC(=O)O)C(=O)NCC(=O)NCC(=O)N1CCC[C@H]1C(=O)N[C@@H](CO)C(=O)N[C@@H](CO)C(=O)NCC(=O)N[C@@H](CCC(=O)O)C(=O)N1CCC[C@H]1C(=O)N1CCC[C@H]1C(=O)N1CCC[C@H]1C(=O)N[C@@H](CO)C(N)=O` [Example 3]: in data set [1] (subcutaneous), the AUC(0-inf) worked out at 32.8 µM·h. Besides, in data set [1] (subcutaneous), the CL/F was 6.1 mL/h/kg. The same compound registered a Cmax in data set [1] (subcutaneous) of 1070 nM. Moreover, in data set [1] (subcutaneous), the Tmax came out at 12 h. Besides, the half-life in data set [1] (subcutaneous) was 13 h. Moreover, the Emax came out at 105 ± 5% in data set [2] (setting [5]); 103 ± 2% in data set [2] (setting [6]); 111 ± 5% in data set [3] (HEK293, 0.1% bovine casein and 1.0% human serum albumin, read-out: hGLP-1R Emax); 107 ± 2% in data set [3] (HEK293, 0.1% bovine casein, read-out: hGLP-1R Emax); 97 ± 9% in data set [4] (HEK293, 0.1% bovine casein and 1.0% human serum albumin); 99 ± 4% in data set [4] (HEK293, 0.1% bovine casein).

The term AUC(0-inf) denotes total exposure, with the tail of the curve extrapolated. High values mean more exposure, low ones less exposure. One may read the CL/F as clearance divided by bioavailability, as obtained after extravascular dosing. By Cmax is commonly meant the peak of the concentration-time curve. Broadly, the Tmax is the time at which the peak concentration occurs. The term Emax denotes the maximal effect, on the per cent scale that the assay sets.
